Results from patent US20240076284A1, “NEW COMPOUNDS AND METHODS” (BENEVOLENTAI BIO LIMITED, priority 2020, published 2024).

What was measured:
[1] = target: T1, Ba/F3 cells expressing BCR-ABL (Homo sapiens, UniProt P00519); test: Ba/F3 CellTiter-Glo Assay; type: cell-based; details: 48 h incubation, CellTiter-Glo luminescence
T1 construct: BCR (fusion partner, N-terminal portion of BCR); host or cells: Ba/F3 (murine pro-B cells); the other entry of the earlier key: BCR (P11274, Breakpoint cluster region protein)
T1 sequence (P00519 229-512 limits assumed): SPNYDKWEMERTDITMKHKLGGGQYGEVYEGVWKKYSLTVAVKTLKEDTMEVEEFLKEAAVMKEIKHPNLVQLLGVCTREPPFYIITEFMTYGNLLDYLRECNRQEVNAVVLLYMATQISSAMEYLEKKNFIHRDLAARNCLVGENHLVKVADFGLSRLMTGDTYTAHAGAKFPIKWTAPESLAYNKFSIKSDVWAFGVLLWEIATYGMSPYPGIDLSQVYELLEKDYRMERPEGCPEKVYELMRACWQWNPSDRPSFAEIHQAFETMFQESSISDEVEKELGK
Method: The CellTiter-Glo luminescent cell viability assay is a homogeneous method of determining the number of viable cells in culture based on quantification of the ATP present. Briefly, IL-3 dependent Ba/F3 cells are modified to express BCR-ABL. Activity of the transformed kinase overrides IL-3 dependency for cellular proliferation and survival. […] In this assay Ba/F3 cells expressing BCR-ABL (Advanced Cellular Dynamics) or parental Ba/F3 (control) cells were prepared at 5×10^4/mL in RPMI 1640 containing 10% FBS, 1×Glutamax and 750 ng/mL puromycin. Test compounds were dispensed into 384 well plates using the Tecan D300e at a top final assay concentration of 10 μM with dosing normalised to 0.1% DMSO in […]. 50 μL cells were added to each well of the prepared 384 well plates and the plates spun at 1000 rpm for 1 min prior to incubation at 37° C., 5% CO2 for 48 h. After 48 h 15 μL CellTiter-Glo reagent was added to each well in the plate. Following a 60 min incubation at rt luminescence was read on the Pherastar FS reader.

MDR1 = target: T2, MDR1 (Homo sapiens, UniProt P08183); test: MDR1-MDCK effective efflux ratio; type: in vitro ADME; details: MDR1-MDCK relative to wild-type MDCK, 1 μM, 60 minutes, pH 7.4
T2 construct: expressed in transfected cells; host or cells: MDCK (canine kidney) cells
Method: (§1) Wild-type MDCK, MDR1-MDCK and BCRP-MDCK cells were seeded into 24 well Transwell plates and cultured for 3 days to form monolayers. Test compound were prepared at 1 μM in Hanks' Balanced Salt Solution containing 25 mM HEPES and loaded into the donor compartments of Transwell plates bearing the cell monolayers (pH 7.4 for both donor and receiver compartments). Lucifer Yellow was added to the apical buffer in all wells to assess integrity of the cell monolayer. Duplicate wells were prepared and incubated at 37° C. in a CO2 incubator. Samples were removed at time zero and 60 minutes and test compound analysed by LC-MS/MS. Concentrations of Lucifer Yellow in the samples was measured using a fluorescence plate reader. The apparent permeability (Papp) values of test compound was determined for both the apical to basal (A>B) and basal to apical (B>A) permeation and the efflux ratio (B>A: A>B) determined in each cell line. The effective efflux ratio was determined from the ratio of either MDR1-MDCK cells or BCRP-MDCK cells relative to the ratio observed in wild-type cells. A higher value represent a better substrate for the efflux mechanism, which is less preferable.

BCRP = target: T3, BCRP (Homo sapiens, UniProt Q9UNQ0); test: BCRP-MDCK effective efflux ratio; type: in vitro ADME; details: BCRP-MDCK relative to wild-type MDCK, 1 μM, 60 minutes, pH 7.4
T3 construct: expressed in transfected cells; host or cells: MDCK (canine kidney) cells
T3 sequence (Q9UNQ0 1-655): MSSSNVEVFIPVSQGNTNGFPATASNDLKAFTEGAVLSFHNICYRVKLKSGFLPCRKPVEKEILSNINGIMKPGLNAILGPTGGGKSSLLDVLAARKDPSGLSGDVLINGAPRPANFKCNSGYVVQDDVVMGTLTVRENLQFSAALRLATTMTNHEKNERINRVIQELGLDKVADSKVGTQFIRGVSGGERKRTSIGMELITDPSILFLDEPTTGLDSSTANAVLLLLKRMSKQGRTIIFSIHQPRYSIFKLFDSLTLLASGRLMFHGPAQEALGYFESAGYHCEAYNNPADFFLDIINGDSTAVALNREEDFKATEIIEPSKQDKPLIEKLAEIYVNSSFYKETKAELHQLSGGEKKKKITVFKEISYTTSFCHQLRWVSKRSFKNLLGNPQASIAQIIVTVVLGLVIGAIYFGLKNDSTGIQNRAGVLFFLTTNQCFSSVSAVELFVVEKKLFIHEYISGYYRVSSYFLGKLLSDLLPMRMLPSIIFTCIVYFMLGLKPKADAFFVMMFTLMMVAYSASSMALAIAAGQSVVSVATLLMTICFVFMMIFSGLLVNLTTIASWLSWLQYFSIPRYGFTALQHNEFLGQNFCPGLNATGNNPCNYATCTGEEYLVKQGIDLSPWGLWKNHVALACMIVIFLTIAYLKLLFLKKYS
Method: as §1

[2] = Human microsomal stability; type: in vitro ADME; details: human microsomes, first value of cell; NADPH, 37° C., up to 40 min
Method: (§2) This assay measures the metabolic stability of a given compound and predicts intrinsic liver clearance for various species. A quench plate is initially prepared which contains 400 μL MeCN and 25 ng/mL of internal standard. An aliquot of microsomes is defrosted and subsequently diluted with buffer. A solution of NADPH is made up fresh just before initialising the assay. 445 μL of microsome solution is added to the desired compound (5 μL in 10 μM DMSO) and the resulting solution mixed. The reaction is initiated by the addition of 50 μL of NADPH, a T0 sample is removed before the addition and quenched. The sample plate is kept at a constant 37° C. during the incubation. At pre-determined timepoints (2.5, 5, 10, 20 and 40 min) the incubation is mixed and 22.5 μL samples are transferred to quench plates. After completion of the time course, the quench plates are sealed and shaken for a minimum of 5 min, before centrifugation at 4000 rpm for 5 min. The supernatant is then subsequently transferred to a fresh plate and diluted 1:3 with MeOH/H2O. The plates are then heat sealed and analysed by a Water Acquity UPLC and a Waters TQ-S mass spectrometer. Waters MassLynx software is used for analysis using an MRM transition that has been previously generated from prior optimisation. After acquiring the data on the system the chromatograms are processed and checked using TargetLynx XS software and the raw data output is copied into a microsomal stability workbook. The workbook automatically populates and derives the CLint, t1/2 and scales the CLint values to generate Eh and predicted CL values. The analyst has the final workbook quality checked before the experiment is signed off.

Rat microsomal stability = type: in vitro ADME; details: rat microsomes, second value of cell; NADPH, 37° C., up to 40 min
Method: as §2

T2 sequence (P08183 whole entry, species assumed): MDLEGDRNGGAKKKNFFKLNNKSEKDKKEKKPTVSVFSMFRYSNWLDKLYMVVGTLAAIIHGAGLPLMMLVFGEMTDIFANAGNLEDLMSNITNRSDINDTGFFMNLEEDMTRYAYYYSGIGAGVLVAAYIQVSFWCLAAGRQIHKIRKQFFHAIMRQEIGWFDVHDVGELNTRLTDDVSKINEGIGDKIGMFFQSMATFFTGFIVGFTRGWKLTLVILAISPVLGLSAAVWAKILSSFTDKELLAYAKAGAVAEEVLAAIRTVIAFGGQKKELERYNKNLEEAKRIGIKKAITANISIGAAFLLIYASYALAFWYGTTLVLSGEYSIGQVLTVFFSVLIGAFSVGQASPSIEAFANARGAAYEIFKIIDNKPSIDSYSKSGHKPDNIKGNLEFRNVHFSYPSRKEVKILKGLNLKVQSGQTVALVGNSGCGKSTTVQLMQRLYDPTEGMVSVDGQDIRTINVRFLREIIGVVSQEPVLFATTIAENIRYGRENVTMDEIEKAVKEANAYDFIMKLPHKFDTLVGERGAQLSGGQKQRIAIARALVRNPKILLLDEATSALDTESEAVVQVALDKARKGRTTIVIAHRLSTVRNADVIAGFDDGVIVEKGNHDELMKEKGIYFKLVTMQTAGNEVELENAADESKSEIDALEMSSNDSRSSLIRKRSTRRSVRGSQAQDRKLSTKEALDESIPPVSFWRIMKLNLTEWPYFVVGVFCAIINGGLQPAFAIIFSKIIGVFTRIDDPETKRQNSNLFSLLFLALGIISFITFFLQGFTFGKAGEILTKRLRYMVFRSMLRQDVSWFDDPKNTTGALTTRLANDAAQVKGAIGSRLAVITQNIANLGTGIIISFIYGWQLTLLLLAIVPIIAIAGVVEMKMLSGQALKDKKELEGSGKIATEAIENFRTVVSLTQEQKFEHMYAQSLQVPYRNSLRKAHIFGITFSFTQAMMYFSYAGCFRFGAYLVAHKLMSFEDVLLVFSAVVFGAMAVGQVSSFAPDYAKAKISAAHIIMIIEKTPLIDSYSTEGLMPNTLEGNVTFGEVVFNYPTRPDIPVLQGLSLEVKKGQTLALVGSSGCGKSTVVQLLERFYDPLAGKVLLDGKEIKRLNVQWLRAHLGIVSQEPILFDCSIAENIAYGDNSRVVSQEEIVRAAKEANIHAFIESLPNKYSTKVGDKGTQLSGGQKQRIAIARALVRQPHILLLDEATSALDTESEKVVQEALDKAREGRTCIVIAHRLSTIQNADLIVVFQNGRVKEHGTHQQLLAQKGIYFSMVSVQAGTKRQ

SMILES: Cc1ccc(C(=O)Nc2cc(C(F)(F)F)ccn2)cc1-n1cc(-c2cnn(C)c2C)cn1 [Example 4, 3-[4-(1,5-Dimethylpyrazol-4-yl)pyrazol-1-yl]-4-methyl-N-[4-(trifluoromethyl)-2-pyridyl]benzamide]
- IC50 [1]: 72 nM
- MDCK MDR1 EER (MDR1): 1.2
- MDCK BCRP EER (BCRP): 1.3
- Microsomal stability (human/rat) Eh [2]: < 0.44
- Microsomal stability (human/rat) Eh (Rat microsomal stability): 0.60
